Experimental data published in paper PMC6152322, “Synthesis and Evaluation of New Oxadiazole, Thiadiazole, and Triazole Derivatives as Potential Anticancer Agents Targeting MMP-9” (Molecules : A Journal of Synthetic Chemistry and Natural …, 2017).
Where two headings read alike, the source gives them in different places.

Columns and labels:
C6 rat glioma cell line = test: XTT cytotoxicity assay on C6 cells; format: cell-based; settings: 24 h incubation, Mean ± standard deviation, read-out: IC50 Values for Cell Lines C6
Description: (§1) NIH/3T3 Mouse embryonic fibroblast (ATCC® CRL-1658™, American Type Culture Collection (ATCC), Manassas, VA, USA), A549 human lung adenocarcinoma (ATCC® CCL-185™, American Type Culture Collection (ATCC), Manassas, VA, USA) and C6 rat glioma (ATCC® CCL-107™, American Type Culture Collection (ATCC), Manassas, VA, USA) cell lines were used for cytotoxicity tests. NIH/3T3 cell line was used to investigate the selectivity of the compounds, whereas other cell lines were used to determine anticancer activity. All cell lines were incubated according to the instructions of the supplier at 37 °C in a humidified atmosphere of 95% air and 5% CO2. NIH/3T3, A549 and C6 cells were seeded at 1 × 10^4 cells into each well of 96-well plate. After 24 h of incubating period, the culture mediums were removed and compound was added to culture medium at 500–3.9 μg/mL doses with a dilution factor of 2 (3.9, 7.8, 15.6, 31.2, 62.5, 125, 250, 500 μg/mL). After 24 h of incubation, XTT (2,3-bis(2-methoxy-4-nitro-5-sulfophenyl)-2H-tetrazolium-5-carboxanilide) assay was performed using the In Cytotox-XTT 1 Parameter Cytotoxicity Kit (Xenometrix, Allschwil, Switzerland) as previously described. […] All experiments were done in quadruplicates at three different time points, and the results were given as Mean ± standard deviation. Cisplatin was used as a positive control. The stock solutions of the compounds were prepared in dimethyl sulfoxide (DMSO) and further dilutions were made with fresh culture medium. The final DMSO concentration was under 0.1%.
(§2) Inhibition%=100−( corrected mean OD sample/corrected mean OD solvent controls ×100)

[1] = tested on: A549 human lung adenocarcinoma cell line; test: XTT cytotoxicity assay on A549 cells; format: cell-based; settings: for IC50: Mean ± standard deviation, read-out: IC50 Values for Cell Lines A549
Description: as §1, §2

MMP-9 = biological target: T1, MMP-9 (Homo sapiens, UniProt P14780); test: MMP-9 colorimetric inhibition assay; format: biochemical; settings: for inhibition at 1.3 µM: read-out: Inhibition % (Mean ± SD) MMP-9
T1 construct: purchased Enzo Life Sciences Inc
T1 sequence (P14780 94-707): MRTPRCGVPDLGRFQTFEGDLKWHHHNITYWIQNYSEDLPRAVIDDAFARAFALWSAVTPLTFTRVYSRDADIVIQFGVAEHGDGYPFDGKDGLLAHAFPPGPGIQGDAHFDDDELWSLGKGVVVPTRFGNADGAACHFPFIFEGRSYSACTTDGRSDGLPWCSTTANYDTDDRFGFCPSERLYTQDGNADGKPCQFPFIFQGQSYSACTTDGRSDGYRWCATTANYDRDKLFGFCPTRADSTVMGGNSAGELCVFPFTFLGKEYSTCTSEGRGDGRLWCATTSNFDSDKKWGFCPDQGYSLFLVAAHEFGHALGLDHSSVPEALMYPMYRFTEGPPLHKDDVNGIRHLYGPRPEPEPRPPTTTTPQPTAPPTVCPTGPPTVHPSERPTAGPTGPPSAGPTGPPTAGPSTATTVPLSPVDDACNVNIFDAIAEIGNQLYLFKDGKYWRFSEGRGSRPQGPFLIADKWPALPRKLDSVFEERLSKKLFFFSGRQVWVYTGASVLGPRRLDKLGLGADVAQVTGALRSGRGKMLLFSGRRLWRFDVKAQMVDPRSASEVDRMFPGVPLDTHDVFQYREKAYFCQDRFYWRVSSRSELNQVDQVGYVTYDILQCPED
Description: (§3) MMP-1, -2, -8, -9, -13 colorimetric kits were purchased from Enzo Life Sciences Inc. (Farmingdale, New York, NY, USA). The MMP Colorimetric Drug Discovery Kits are complete assay system designed to screen MMP inhibitors using a thiopeptide as a chromogenic substrate (Ac-PLG-[2-mercapto-4-methyl-pentanoyl]-LG-OC2H5). The MMP cleavage site peptide bond is replaced by a thioester bond in the thiopeptide. Hydrolysis of this bond by a MMP produces a sulfhydryl group, which reacts with DTNB [5,5′-dithiobis(2-nitrobenzoic acid), Ellman’s reagent] to form 2-nitro-5-thiobenzoic acid, which can be detected by its absorbance at 412 nm. The assays were conducted in triplicate. The UV absorbance was read at 412 nm using a microplate reader (BioTek, PowerWave, Gen5 software, Winooski, VT, USA) at room temperature. NNGH was used as a control inhibitor. Data was expressed as Mean ± SD [63].
(§4) The inhibitor% remaining activity of MMPs was calculated using the following equation: Inhibitor% activity remaining = (V inhibitor/V control) × 100
(§5) The inhibition (percent) of MMPs was calculated using the following equation:I (%) = 100 − Inhibitor% activity remaining

[2] = tested on: NIH/3T3 mouse embryonic fibroblast cell line; test: XTT cytotoxicity assay on NIH/3T3 cells; format: cell-based; settings: NIH3T3, 24 h incubation, Mean ± standard deviation, read-out: IC50 Values for Cell Lines NIH/3T3
Description: as §1, §2

MMP-8 = biological target: T2, MMP-8 (Homo sapiens, UniProt P22894); test: MMP-8 colorimetric inhibition assay; format: biochemical; settings: for Inhibition % (Mean ± SD) MMP-8: 1.3 μM
T2 construct: purchased Enzo Life Sciences Inc
T2 sequence (P22894 101-467): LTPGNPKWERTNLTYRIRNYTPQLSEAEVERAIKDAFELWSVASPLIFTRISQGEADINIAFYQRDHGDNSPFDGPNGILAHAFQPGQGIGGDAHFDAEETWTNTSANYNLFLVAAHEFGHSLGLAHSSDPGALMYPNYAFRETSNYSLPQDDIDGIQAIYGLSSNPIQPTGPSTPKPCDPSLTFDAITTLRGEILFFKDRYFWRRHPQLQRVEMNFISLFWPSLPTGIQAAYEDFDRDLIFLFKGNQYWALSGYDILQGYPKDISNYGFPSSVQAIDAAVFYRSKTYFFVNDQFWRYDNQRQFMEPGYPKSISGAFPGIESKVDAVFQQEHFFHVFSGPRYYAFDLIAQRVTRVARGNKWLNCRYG
Description: as §3, §4, §5

MMP-13 = biological target: T3, MMP-13 (Homo sapiens, UniProt P45452); test: MMP-13 colorimetric inhibition assay; format: biochemical; settings: 1.3 μM
T3 construct: purchased Enzo Life Sciences Inc
Description: as §3, §4, §5

MMP-1 = biological target: T4, MMP-1 (Homo sapiens, UniProt P03956); test: MMP-1 colorimetric inhibition assay; format: biochemical; settings: 1.3 μM
T4 construct: purchased Enzo Life Sciences Inc
T4 sequence (P03956 100-469): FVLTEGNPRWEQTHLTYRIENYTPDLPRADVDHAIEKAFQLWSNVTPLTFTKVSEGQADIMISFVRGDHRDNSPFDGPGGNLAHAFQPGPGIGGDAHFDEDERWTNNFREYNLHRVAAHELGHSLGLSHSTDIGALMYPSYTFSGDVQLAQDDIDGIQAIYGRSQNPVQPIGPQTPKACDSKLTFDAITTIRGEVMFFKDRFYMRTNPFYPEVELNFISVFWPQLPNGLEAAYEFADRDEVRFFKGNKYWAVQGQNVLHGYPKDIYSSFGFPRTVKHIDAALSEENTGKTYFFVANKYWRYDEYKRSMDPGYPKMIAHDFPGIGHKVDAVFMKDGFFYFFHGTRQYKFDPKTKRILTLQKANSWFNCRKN
Description: as §3, §4, §5

MMP-2 = biological target: T5, MMP-2 (Homo sapiens, UniProt P08253); test: MMP-2 colorimetric inhibition assay; format: biochemical; settings: 1.3 μM
T5 construct: purchased Enzo Life Sciences Inc
T5 sequence (P08253 110-660): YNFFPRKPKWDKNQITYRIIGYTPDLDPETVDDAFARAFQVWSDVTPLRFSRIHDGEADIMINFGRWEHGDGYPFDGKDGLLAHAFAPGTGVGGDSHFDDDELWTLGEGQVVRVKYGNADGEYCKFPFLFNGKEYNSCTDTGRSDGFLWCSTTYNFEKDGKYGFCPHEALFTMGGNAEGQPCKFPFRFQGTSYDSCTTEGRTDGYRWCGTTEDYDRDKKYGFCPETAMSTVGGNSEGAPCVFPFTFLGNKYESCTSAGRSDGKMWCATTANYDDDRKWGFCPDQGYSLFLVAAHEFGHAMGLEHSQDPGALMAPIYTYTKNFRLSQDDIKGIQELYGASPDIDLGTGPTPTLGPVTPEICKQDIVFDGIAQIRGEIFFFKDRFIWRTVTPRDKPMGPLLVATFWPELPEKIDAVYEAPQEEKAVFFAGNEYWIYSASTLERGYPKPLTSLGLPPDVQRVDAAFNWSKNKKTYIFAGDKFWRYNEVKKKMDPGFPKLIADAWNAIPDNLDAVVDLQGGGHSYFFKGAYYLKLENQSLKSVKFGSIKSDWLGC
Description: as §3, §4, §5

[3] = Homo sapiens, A549, 24 h incubation

Row | melting point | SMILES | IC50 (C6 rat glioma cell line; Rattus norvegicus, Glioma cell) | IC50 [1, 3] | IC50 [2] | other results
1 | 187 °C | O=C(CSc1nnc(Nc2ccc(Cl)cc2Cl)s1)NCc1ccc2c(c1)OCO2 [Compound 5, N-(1,3-Benzodioxol-5-ylmethyl)-2-{[5-((2,4-dichlorophenyl)amino)-1,3,4-thiadiazol-2-yl]thio}acetamide] | > 1070 µM | > 1.07 mM | > 1.07 mM | cytotoxic activity against A549 cell line (in words) ([1]; 24 h incubation): did not show any cytotoxic activity
2 | 148 °C | Nn1c(COc2ccccc2)nnc1SCC(=O)NCc1ccc2c(c1)OCO2 [Compound 6, 2-{[4-Amino-5-(phenoxymethyl)-4H-1,2,4-triazol-3-yl]thio}-N-(1,3-benzodioxol-5-ylmethyl)acetamide] | > 1210 µM | > 1.21 mM | > 1.21 mM | cytotoxic activity against A549 cell line (in words) ([1]; 24 h incubation): did not show any cytotoxic activity
3 | 127 °C | COc1ccc(OCc2nnc(SCC(=O)NCc3ccc4c(c3)OCO4)o2)cc1 [Compound 7, N-(1,3-Benzodioxol-5-ylmethyl)-2-{[5-((4-methoxyphenoxy)methyl)-1,3,4-oxadiazol-2-yl]thio}acetamide] | > 1170 µM | > 1.17 mM | 0.1 ± 0.011 mM | cytotoxic activity against A549 cell line (in words) ([1]; 24 h incubation): did not show any cytotoxic activity
4 | 96 °C | O=C(CSc1nnc(COc2ccc3c(c2)CCCC3)o1)NCc1ccc2c(c1)OCO2 [Compound 8, N-(1,3-Benzodioxol-5-ylmethyl)-2-{[5-(((5,6,7,8-tetrahydronaphthalen-2-yl)oxy)methyl)-1,3,4-oxadiazol-2-yl]thio}acetamide] | 137 ± 15 µM | 0.125 ± 0.02 mM | > 1.1 mM | inhibition at 1.3 µM (MMP-9): 25.8 ± 2.16%; Inhibition % (Mean ± SD) MMP-8 (MMP-8): no inhibitory activity
5 | 136 °C | O=C(CSc1nnc(-c2ccccc2)o1)NCc1ccc2c(c1)OCO2 [Compound 9, N-(1,3-Benzodioxol-5-ylmethyl)-2-[(5-phenyl-1,3,4-oxadiazol-2-yl)thio]acetamide] | 157 ± 16 µM | 0.349 ± 0.046 mM | 0.888 ± 0.029 mM | inhibition at 1.3 µM (MMP-9): 30.5 ± 3.27%; Inhibition % (Mean ± SD) MMP-8 (MMP-8): no inhibitory activity

The next lines start with the compound.

Row | SMILES | melting point | IC50 (C6 rat glioma cell line; Rattus norvegicus, Glioma cell) | IC50 [1, 3] | IC50 [2] | other results
6 | N.N.[Cl][Pt][Cl] [Cisplatin, reference compound] |  |  |  |  | IC50 (C6 rat glioma cell line): 103 ± 26 µM; IC50 ([1]; 24 h incubation): 0.14 ± 0.03 mM
7 | O=C(CSc1nnc(Nc2ccc(Cl)cc2Cl)s1)N1CCOCC1 [Compound 1, 2-{[5-((2,4-Dichlorophenyl)amino)-1,3,4-thiadiazol-2-yl]thio}-1-morpholinoethan-1-one] | 154 °C | 128 ± 27 µM | > 1.23 mM | 0.308 ± 0.037 mM | inhibition at 1.3 µM (MMP-9): 24.8 ± 0.86%; inhibition at 1.3 µM (MMP-8; read-out: Inhibition % (Mean ± SD) MMP-8): 15 ± 1.4%
8 | Nn1c(COc2ccccc2)nnc1SCC(=O)N1CCOCC1 [Compound 2, 2-{[4-Amino-5-(phenoxymethyl)-4H-1,2,4-triazol-3-yl]thio}-1-morpholinoethan-1-one] | 213 °C | > 1430 µM | > 1.43 mM | 1.41 ± 0.094 mM | 
9 | COc1ccc(OCc2nnc(SCC(=O)N3CCOCC3)o2)cc1 [Compound 3, 2-{[5-((4-Methoxyphenoxy)methyl)-1,3,4-oxadiazol-2-yl]thio}-1-morpholinoethan-1-one] | 119 °C | 507 ± 49 µM | 1.37 ± 0.058 mM | 1.37 ± 0.074 mM | 
10 | O=C(CSc1nnc(COc2ccc3c(c2)CCCC3)o1)N1CCOCC1 [Compound 4, 2-{[5-(((5,6,7,8-Tetrahydronaphthalen-2-yl)oxy)methyl)-1,3,4-oxadiazol-2-yl]thio}-1-morpholinoethan-1-one] |  | > 1280 µM | > 1.28 mM | 1.28 ± 0.09 mM | 
11 | COc1ccc(S(=O)(=O)N(CC(=O)NO)CC(C)C)cc1 [NNGH, N-isobutyl-N-(4-methoxyphenylsulfonyl)glycyl hydroxamic acid] |  |  |  |  | Inhibition % (Mean ± SD) MMP-9 (MMP-9; 1.3 μM): 88.44 ± 3.35%; Inhibition % (Mean ± SD) MMP-13 (MMP-13): 93.74 ± 3.06%; Inhibition % (Mean ± SD) MMP-8 (MMP-8): 100%; Inhibition % (Mean ± SD) MMP-1 (MMP-1): 87.79 ± 3.49%; Inhibition % (Mean ± SD) MMP-2 (MMP-2): 100%
